Common to all, as to test: relative viability (nuclei count vs DMSO), 5 days (fraction); higher = more cells survive
Compound in experiment [1]: C[C@]1(O)C[C@@H](c2nc(-c3ccc4ccc(-c5ccccc5)nc4c3)c3c(N)nccn32)C1 [Linsitinib] + Nc1nc2[nH]cc(CCc3ccc(C(=O)N[C@@H](CCC(=O)O)C(=O)O)cc3)c2c(=O)[nH]1 [Pemetrexed] (partner 0.2 µM)
The method in brief: (§1)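 Lung cancer cell lines in 1536-well plates got either a single drug or a fixed anchor-drug dose together with five library-drug doses (not always all listed) in √10 steps, by pin tool, on the day after seeding. Nuclei were counted after 5 days, and relative viability is the treated-to-vehicle ratio of nuclei counts. Values are medians of duplicate plates.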

Compound in experiment [2]: C[C@]1(O)C[C@@H](c2nc(-c3ccc4ccc(-c5ccccc5)nc4c3)c3c(N)nccn32)C1 [Linsitinib] + CC(=O)Nc1cccc(-n2c(=O)n(C3CC3)c(=O)c3c(Nc4ccc(I)cc4F)n(C)c(=O)c(C)c32)c1 [Trametinib] (partner 0.02 µM)
The method in brief: as §1

Compound in experiment [3]: Cc1ccc(C(=O)N(CCCN)[C@@H](c2nc3cc(Cl)ccc3c(=O)n2Cc2ccccc2)C(C)C)cc1 [Ispinesib] + CS(=O)(=O)CCNCc1ccc(-c2ccc3ncnc(Nc4ccc(OCc5cccc(F)c5)c(Cl)c4)c3c2)o1 [Lapatinib] (partner 2 µM)
Summed up: as §1

Compound in experiment [4]: Cc1ccc(C(=O)N(CCCN)[C@@H](c2nc3cc(Cl)ccc3c(=O)n2Cc2ccccc2)C(C)C)cc1 [Ispinesib] + CC(C)C[C@H](NC(=O)[C@H](Cc1ccccc1)NC(=O)c1cnccn1)B(O)O [Bortezomib] (partner 0.002 µM)
The method in brief: as §1

The results in this text go back to the supplement of paper PMC10307832.

As for NCI-H1915, the relative viability in experiment [1] (first compound 0.01 µM) worked out at 0.558; in experiment [1] (first compound 0.03162 µM) it was 0.291; in experiment [1] (first compound 0.1 µM), 0.495; in experiment [1] (first compound 0.3162 µM), 0.588; in experiment [1] (first compound 1 µM), 0.486; in experiment [2] (first compound 0.01 µM), 0.292. Moreover, the relative viability in experiment [2] (first compound 0.03162 µM) was 0.332; in experiment [2] (first compound 0.1 µM) it was 0.292; in experiment [2] (first compound 0.3162 µM), 0.308; in experiment [2] (first compound 1 µM) it was 0.268; in experiment [3] (first compound 0.001 µM), 0.958; in experiment [3] (first compound 0.003162 µM), 1.06. Moreover, the relative viability in experiment [3] (first compound 0.01 µM) came to 1; in experiment [3] (first compound 0.03162 µM), 0.363; in experiment [3] (first compound 0.1 µM) it was 0.139; in experiment [4] (first compound 0.001 µM), 1.04; in experiment [4] (first compound 0.003162 µM), 1.14; in experiment [4] (first compound 0.01 µM), 1.13. For the same cell line, the relative viability amounted to 0.797 in experiment [4] (first compound 0.03162 µM) and 0.172 in experiment [4] (first compound 0.1 µM).

In the case of ABC-1, the relative viability was found to be 1.06 in experiment [3] (first compound 0.001 µM); 1.18 in experiment [3] (first compound 0.003162 µM); 1.19 in experiment [3] (first compound 0.01 µM); 1.03 in experiment [3] (first compound 0.03162 µM); 0.766 in experiment [3] (first compound 0.1 µM); 0.269 in experiment [4] (first compound 0.001 µM). Further, the relative viability in experiment [4] (first compound 0.003162 µM) came out at 0.317; in experiment [4] (first compound 0.01 µM) it was 0.302; in experiment [4] (first compound 0.03162 µM) it was 0.197; in experiment [4] (first compound 0.1 µM), 0.273.

With HCC-44, the relative viability in experiment [1] (first compound 0.01 µM) stood at 0.624; in experiment [1] (first compound 0.03162 µM), 0.511; in experiment [1] (first compound 0.1 µM), 0.618; in experiment [1] (first compound 0.3162 µM) it was 0.555; in experiment [1] (first compound 1 µM), 0.6; in experiment [2] (first compound 0.01 µM), 0.94. Besides, the relative viability in experiment [2] (first compound 0.03162 µM) worked out at 1.04; in experiment [2] (first compound 0.1 µM) it was 1.01; in experiment [2] (first compound 0.3162 µM) it was 0.716; in experiment [2] (first compound 1 µM) it was 0.923; in experiment [3] (first compound 0.001 µM), 1.05; in experiment [3] (first compound 0.003162 µM), 1.01. The relative viability was found to be 1.37 in experiment [3] (first compound 0.01 µM); 0.658 in experiment [3] (first compound 0.03162 µM); 0.158 in experiment [3] (first compound 0.1 µM); 0.911 in experiment [4] (first compound 0.001 µM); 1 in experiment [4] (first compound 0.003162 µM); 1.1 in experiment [4] (first compound 0.01 µM). Besides, the relative viability worked out at 0.719 in experiment [4] (first compound 0.03162 µM) and 0.131 in experiment [4] (first compound 0.1 µM).

On to HCC-78, for which the relative viability was 0.897 in experiment [1] (first compound 0.03162 µM); 0.913 in experiment [1] (first compound 0.1 µM); 0.882 in experiment [1] (first compound 0.3162 µM); 0.925 in experiment [1] (first compound 1 µM); 0.913 in experiment [2] (first compound 0.03162 µM); 0.698 in experiment [2] (first compound 0.1 µM). The relative viability in experiment [2] (first compound 0.3162 µM) was 0.736; in experiment [2] (first compound 1 µM), 0.578; in experiment [3] (first compound 0.001 µM), 0.762; in experiment [3] (first compound 0.003162 µM), 1.47; in experiment [3] (first compound 0.01 µM), 0.811; in experiment [3] (first compound 0.1 µM), 0.308. Also, the relative viability in experiment [4] (first compound 0.001 µM) was determined as 0.504; in experiment [4] (first compound 0.003162 µM), 0.531; in experiment [4] (first compound 0.01 µM), 0.459; in experiment [4] (first compound 0.03162 µM) it was 0.308; in experiment [4] (first compound 0.1 µM), 0.394.

In the case of LXF-289, the relative viability in experiment [1] (first compound 0.01 µM) is 0.879; in experiment [1] (first compound 0.03162 µM), 0.88; in experiment [1] (first compound 0.1 µM), 0.927; in experiment [1] (first compound 0.3162 µM), 0.777; in experiment [1] (first compound 1 µM) it was 0.861; in experiment [2] (first compound 0.01 µM), 0.641. For the same cell line, the relative viability in experiment [2] (first compound 0.03162 µM) worked out at 0.535; in experiment [2] (first compound 0.1 µM), 0.674; in experiment [2] (first compound 0.3162 µM), 0.519; in experiment [2] (first compound 1 µM), 0.665; in experiment [3] (first compound 0.001 µM), 0.872; in experiment [3] (first compound 0.003162 µM), 0.909. The relative viability came to 1.01 in experiment [3] (first compound 0.01 µM); 0.634 in experiment [3] (first compound 0.03162 µM); 0.118 in experiment [3] (first compound 0.1 µM); 0.993 in experiment [4] (first compound 0.001 µM); 0.992 in experiment [4] (first compound 0.003162 µM); 1.14 in experiment [4] (first compound 0.01 µM). In addition, the relative viability was determined as 0.799 in experiment [4] (first compound 0.03162 µM) and 0.118 in experiment [4] (first compound 0.1 µM).

For the cell line 201T, the relative viability in experiment [1] (first compound 0.01 µM) amounted to 0.319; in experiment [1] (first compound 0.03162 µM) it was 0.272; in experiment [1] (first compound 0.1 µM), 0.343; in experiment [1] (first compound 0.3162 µM), 0.287; in experiment [1] (first compound 1 µM), 0.29; in experiment [2] (first compound 0.01 µM) it was 0.7. Further, the relative viability amounted to 0.736 in experiment [2] (first compound 0.03162 µM); 0.702 in experiment [2] (first compound 0.1 µM); 0.72 in experiment [2] (first compound 0.3162 µM); 0.753 in experiment [2] (first compound 1 µM); 1.06 in experiment [3] (first compound 0.001 µM); 1.07 in experiment [3] (first compound 0.003162 µM). The relative viability stood at 1.1 in experiment [3] (first compound 0.01 µM); 0.916 in experiment [3] (first compound 0.03162 µM); 0.431 in experiment [3] (first compound 0.1 µM); 1.13 in experiment [4] (first compound 0.001 µM); 1.16 in experiment [4] (first compound 0.003162 µM); 0.947 in experiment [4] (first compound 0.01 µM). Besides, the relative viability in experiment [4] (first compound 0.03162 µM) is 1.02; in experiment [4] (first compound 0.1 µM) it was 0.669.

With NCI-H1734, the relative viability in experiment [1] (first compound 0.01 µM) was 0.413; in experiment [1] (first compound 0.03162 µM), 0.324; in experiment [1] (first compound 0.1 µM), 0.404; in experiment [1] (first compound 0.3162 µM), 0.417; in experiment [1] (first compound 1 µM), 0.408; in experiment [2] (first compound 0.01 µM), 0.642. For the same cell line, the relative viability in experiment [2] (first compound 0.03162 µM) was 0.685; in experiment [2] (first compound 0.1 µM) it was 0.61; in experiment [2] (first compound 0.3162 µM), 0.468; in experiment [2] (first compound 1 µM), 0.605; in experiment [3] (first compound 0.001 µM), 1.16; in experiment [3] (first compound 0.003162 µM) it was 1.11. Besides, the relative viability in experiment [3] (first compound 0.01 µM) stood at 1.4; in experiment [3] (first compound 0.03162 µM), 0.408; in experiment [3] (first compound 0.1 µM), 0.296; in experiment [4] (first compound 0.001 µM) it was 0.943; in experiment [4] (first compound 0.003162 µM), 0.954; in experiment [4] (first compound 0.01 µM) it was 0.997. Also, the relative viability in experiment [4] (first compound 0.03162 µM) was 0.962; in experiment [4] (first compound 0.1 µM), 0.328.
